The results in this text go back to BindingDB's records for doi:10.1016/j.bmcl.2014.08.028 (Rhône-Poulenc Rorer, 2014).

This test can be described thus: Antagonist activity at CRTH2 receptor in human whole blood assessed as inhibition of PGD2-induced eosinophil shape change after 10 mins by fluorescence assay.
`Cc1ccc2c(CC(=O)O)cn(-c3ccc(F)cc3Cc3c(C)cnn3C)c2n1`: the IC50 – broadly, the concentration that inhibits the measured activity by half – was 6 nM.
In the case of `Cc1ccc(-n2cc(CC(=O)O)c3ccc(C)nc32)c(Cn2c(C)nnc2C)c1`, the half-maximal inhibitory concentration (IC50) came to 1 nM.
Then `Cc1ccc2c(CC(=O)O)cn(-c3ccc(Cl)cc3Cn3c(C)nnc3C3CC3)c2n1`, with 4 nM.
On to `Cc1nnc(C2CC2)n1Cc1cc(C(F)(F)F)ccc1-c1cn(CC(=O)O)c2ccc(F)cc12`, for which the half-inhibitory concentration (IC50) came out at 2 nM.
As to `Cc1nnc(C2CC2)n1Cc1cc(C(F)(F)F)ccc1-n1cc(CC(=O)O)c2ccc(F)cc21`, the concentration for half-maximal inhibition (IC50) was 7 nM.
Then `Cc1ccc2c(CC(=O)O)cn(-c3ccc(Cl)cc3Cn3c(C)nnc3Cc3ccccc3)c2n1`, with 2 nM; and `Cc1ccc2c(CC(=O)O)cn(-c3ccc(Cl)cc3Cn3c(C)nnc3CCc3ccccc3)c2n1`, with 5 nM.
Regarding `Cc1noc(C2CC2)c1Cc1cc(F)ccc1-c1cn(CC(=O)O)c2ccc(C(F)(F)F)cc12`, the half-inhibitory concentration (IC50) came out at 16 nM.
For `Cc1ccn2c(CC(=O)O)cc(-c3ccc(C(F)(F)F)cc3Cc3c(C)noc3C3CC3)c2n1`, the IC50 came to 26 nM.
Then `Cc1noc(C2CC2)c1Cc1cc(C(F)(F)F)ccc1-c1cn(CC(=O)O)c2ccc(C(F)(F)F)nc12`, with 54 nM; and `Cc1ccc2c(CC(=O)O)cn(-c3ccc(F)cc3Cc3c(C)noc3C3CC3)c2n1`, with 1 nM; and `Cc1ccc2c(CC(=O)O)cn(-c3ccc(C(F)(F)F)cc3Cc3c(C)noc3C3CC3)c2n1`, with 5 nM.
Then `Cc1ccc2c(CC(=O)O)cn(-c3ccc(C(F)(F)F)cc3Cc3c(C4CC4)noc3C3CC3)c2n1`, with 60 nM; and `Cc1ccc2c(CC(=O)O)cn(-c3ccc(Cl)cc3Cc3c(C4CC4)noc3C3CC3)c2n1`, with 10 nM.
